Our source for the IC50, CLint scaled and half-life values is patent US10751339B2, “Substituted aminopyrimidine compounds and methods of use” (SUNSHINE LAKE PHARMA CO., LTD., priority 2018, dated 2020).

Molecules are shown by their SMILES. A value given as a limit tells only on which side of the number the result lay.

The target of data set [1] is PI3K (p110δ/p85α) (h) (Homo sapiens (Human), UniProt O00329). The experiment in a line: PI3K (p110δ/p85α) (h) non-radioactive HTRF kinase assay. The class given is biochemical. On the procedure:
(§1) PI3K (p110δ/p85α) (h) is incubated in assay buffer containing 10 μM phosphatidylinositol-4, 5-bisphosphate and MgATP (concentration as required). The reaction is initiated by the addition of the MgATP mix. After incubation for 30 minutes at room temperature, the reaction is stopped by the addition of stop solution containing EDTA and biotinylated phosphatidylinositol-3,4,5-trisphosphate. Finally, detection buffer is added, which contains europium-labelled anti-GST monoclonal antibody, GST-tagged GRP1 PH domain and streptavidin-allophycocyanin. The plate is then read in timeresolved fluorescence mode and the homogenous time-resolved fluorescence (HTRF) signal is determined according to the formula HTRF=10000×(Em665 nm/Em620 nm).
(§2) The kinase assays described herein were performed at Millipore UK Ltd, Dundee Technology Park, Dundee DD2 1SW, UK.
(In TR-FRET formats the signal depends on donor and acceptor labels being close together.)

Data set [2] is described as follows: Compound stability in rat liver microsomes. In kind it is in vitro ADME. As to conditions: pH 7.4. The gist of the method: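 Compounds (5 μM, 0.05% DMSO) incubated in duplicate with liver microsomes (0.5 mg protein/mL) and 1.0 mM NADPH in 100 mM phosphate buffer pH 7.4 at 37 °C, sampled 0–60 min. Remaining compound measured by LC/MS/MS, expressed as percent of zero-time control; denatured-microsome and dextromethorphan controls included.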
A general note: Liver microsomes are a subcellular fraction often used to study metabolism.

The target in data set [3] is T1, hERG channels (Homo sapiens (Human), UniProt Q12809). The experiment in a line: hERG assay, manual patch-clamp in HEK-293 cells. The class given is cell-based. The source says: Voltage clamp protocol: Computer software was used to set voltage clamp protocols. In whole-cell model, cells were held at −80 mV, first depolarized to −50 mV for 80 ms, and then depolarized to +20 mV for 4800 ms to activate the hERG channels. After that the cells were repolarized to −50 mV for 5000 ms to elicit the characteristic tail currents. Finally the cells were held at −80 mV again. The peak values of tail currents were sampled for analysis.
T1 sequence (Q12809 whole entry, the tested form may be a part): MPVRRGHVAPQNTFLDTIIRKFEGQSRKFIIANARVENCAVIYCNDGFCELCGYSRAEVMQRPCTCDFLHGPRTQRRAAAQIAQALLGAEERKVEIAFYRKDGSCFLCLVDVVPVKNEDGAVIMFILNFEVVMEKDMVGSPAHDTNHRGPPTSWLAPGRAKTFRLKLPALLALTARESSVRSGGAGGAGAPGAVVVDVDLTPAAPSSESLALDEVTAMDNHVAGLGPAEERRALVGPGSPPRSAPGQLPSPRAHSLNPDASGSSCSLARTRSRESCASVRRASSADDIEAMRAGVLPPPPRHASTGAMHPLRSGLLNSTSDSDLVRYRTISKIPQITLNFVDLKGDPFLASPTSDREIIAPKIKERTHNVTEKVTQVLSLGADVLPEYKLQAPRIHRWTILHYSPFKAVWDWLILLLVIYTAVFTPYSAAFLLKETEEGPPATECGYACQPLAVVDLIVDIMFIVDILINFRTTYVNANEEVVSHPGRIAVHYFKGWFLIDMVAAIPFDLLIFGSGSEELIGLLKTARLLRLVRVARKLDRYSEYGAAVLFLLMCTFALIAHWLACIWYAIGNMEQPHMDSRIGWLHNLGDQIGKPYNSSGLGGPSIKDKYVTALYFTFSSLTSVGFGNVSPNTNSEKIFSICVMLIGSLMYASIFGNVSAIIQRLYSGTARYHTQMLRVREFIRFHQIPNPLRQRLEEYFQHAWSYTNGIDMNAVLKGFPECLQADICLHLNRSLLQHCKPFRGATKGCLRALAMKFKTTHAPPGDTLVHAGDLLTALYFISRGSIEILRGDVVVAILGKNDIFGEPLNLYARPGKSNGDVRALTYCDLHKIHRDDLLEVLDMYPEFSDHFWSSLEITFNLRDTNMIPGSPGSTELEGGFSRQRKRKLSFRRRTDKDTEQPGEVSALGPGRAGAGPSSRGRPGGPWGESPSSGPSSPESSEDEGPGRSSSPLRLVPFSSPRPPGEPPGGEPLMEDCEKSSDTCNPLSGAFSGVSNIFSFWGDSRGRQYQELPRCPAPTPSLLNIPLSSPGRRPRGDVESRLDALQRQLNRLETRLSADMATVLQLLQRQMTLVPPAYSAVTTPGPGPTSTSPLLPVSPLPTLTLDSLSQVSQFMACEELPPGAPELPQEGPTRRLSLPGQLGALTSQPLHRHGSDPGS
Manual patch-clamp protocol: The manual patch-clamp system was used to record the hERG currents in human embryonic kidney (HEK-293) cells. The cells were harvested and transferred to the recording charmer on the stage of an inverted microscope and perfused consistently with extracellular solution. The volume of the recording chamber was about 1 mL. The extracellular solution in the chamber was completely exchanged within 1 min at a perfusion rate about 1 mL/min. Patch micropipettes were pulled with micropipette puller. Pipettes were moved to the cells by Micromanipulator and a slight positive pressure was used to clear the surface before seal formation. A high-resistance seal between the surface of the plasma membrane and the tip of pipettes were achieved by a gentle suck. […]
Data was presented as mean±S.E.M. The effects of test article were normalized with the peak currents recorded in vehicle control. […]

The target of data set [4] is PI3K (p110β/p85α) (h) (Homo sapiens (Human), UniProt P42338). Briefly: PI3K (p110β/p85α) (h) non-radioactive HTRF kinase assay. The class given is biochemical. Here is the method: as §1, with “(p110β/p85α)” for “(p110δ/p85α)”, “phosphatidylinositol-4,5-bisphosphate” for “phosphatidylinositol-4, 5-bisphosphate”
Chain of PI3K (p110β/p85α) (h) (P42338 whole entry): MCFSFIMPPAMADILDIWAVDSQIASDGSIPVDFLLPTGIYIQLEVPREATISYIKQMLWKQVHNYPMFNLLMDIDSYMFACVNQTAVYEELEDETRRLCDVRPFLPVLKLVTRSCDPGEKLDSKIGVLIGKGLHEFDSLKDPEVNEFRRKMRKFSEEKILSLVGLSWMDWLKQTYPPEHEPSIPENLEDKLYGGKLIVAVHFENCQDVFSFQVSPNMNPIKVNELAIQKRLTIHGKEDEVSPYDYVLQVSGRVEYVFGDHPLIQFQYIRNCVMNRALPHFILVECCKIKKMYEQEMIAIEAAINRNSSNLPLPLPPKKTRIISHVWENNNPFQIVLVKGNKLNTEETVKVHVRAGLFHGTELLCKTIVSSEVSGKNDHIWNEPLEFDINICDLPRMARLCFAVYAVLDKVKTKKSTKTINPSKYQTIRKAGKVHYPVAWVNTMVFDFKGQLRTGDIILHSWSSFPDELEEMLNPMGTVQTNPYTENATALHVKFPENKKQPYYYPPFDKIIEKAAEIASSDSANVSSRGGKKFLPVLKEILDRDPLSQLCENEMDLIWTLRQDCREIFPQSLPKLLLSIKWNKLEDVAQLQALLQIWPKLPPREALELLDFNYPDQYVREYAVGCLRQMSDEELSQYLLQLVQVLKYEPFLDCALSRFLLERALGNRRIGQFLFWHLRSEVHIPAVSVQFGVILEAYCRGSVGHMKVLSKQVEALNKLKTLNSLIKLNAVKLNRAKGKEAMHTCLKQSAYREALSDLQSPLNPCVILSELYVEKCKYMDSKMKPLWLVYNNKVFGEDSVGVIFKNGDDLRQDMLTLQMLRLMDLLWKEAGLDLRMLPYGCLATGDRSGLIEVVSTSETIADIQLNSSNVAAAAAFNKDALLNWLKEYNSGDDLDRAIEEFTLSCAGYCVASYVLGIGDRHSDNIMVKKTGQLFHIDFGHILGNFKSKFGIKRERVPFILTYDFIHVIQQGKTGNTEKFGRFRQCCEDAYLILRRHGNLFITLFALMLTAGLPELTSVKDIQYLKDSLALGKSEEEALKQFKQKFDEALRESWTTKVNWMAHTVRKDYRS
Chain of PI3K (p110β/p85α) (h) (P27986 whole entry partner): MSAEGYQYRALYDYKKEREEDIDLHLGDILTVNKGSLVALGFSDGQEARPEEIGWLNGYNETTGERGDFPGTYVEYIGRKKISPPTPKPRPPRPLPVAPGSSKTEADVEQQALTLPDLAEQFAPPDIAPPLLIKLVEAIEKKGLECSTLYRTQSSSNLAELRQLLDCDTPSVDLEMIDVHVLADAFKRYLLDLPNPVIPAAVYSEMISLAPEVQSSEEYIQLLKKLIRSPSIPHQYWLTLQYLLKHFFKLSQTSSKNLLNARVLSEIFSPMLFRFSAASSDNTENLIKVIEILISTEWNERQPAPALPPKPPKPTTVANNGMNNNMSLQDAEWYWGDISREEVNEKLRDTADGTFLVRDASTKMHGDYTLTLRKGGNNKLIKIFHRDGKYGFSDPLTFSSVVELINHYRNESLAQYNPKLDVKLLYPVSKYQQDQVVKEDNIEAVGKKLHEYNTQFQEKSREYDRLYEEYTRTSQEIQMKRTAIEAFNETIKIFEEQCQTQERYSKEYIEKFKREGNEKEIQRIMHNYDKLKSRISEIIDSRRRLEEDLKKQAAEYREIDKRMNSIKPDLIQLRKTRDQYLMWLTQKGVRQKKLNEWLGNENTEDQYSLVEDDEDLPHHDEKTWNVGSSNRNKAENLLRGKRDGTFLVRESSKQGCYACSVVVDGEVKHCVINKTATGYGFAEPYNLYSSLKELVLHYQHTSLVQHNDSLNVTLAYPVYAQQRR
as §2

Data set [5] relates to PI3K-β (786-O). Briefly: p-AKT HTRF assay, PI3K-β in 786-O cells. The class given is cell-based. To be noted: Homo sapiens, 786-0. On the procedure: Cells were incubated at 37° C. in a 5% CO2 atmosphere overnight. […] Medium was then aspirated and 50 μL/well of lysis buffer was added. Plates were shaked for 45 minutes at room temperature and then 16 ul/well of lysate was transferred to 384-well plate. 4 ul/well of premixed antibody was added to the wells. The plate was centrifuged at 1000 rpm at RT for 1 minute and then incubated for 4 hours at 22° C., and Phospho-AKT (ser473) Kit was used for detection.

In data set [6] the target is T1, hERG channels. Briefly: hERG assay, automated QPatch procedure. In kind it is cell-based. The source says:
Only stable cells with recording parameters above threshold were allowed to enter the drug application procedure.
(In general: hERG is a cardiac potassium channel; its block is linked to QT prolongation.)

For data set [7], the system named is SU-DHL-10. Briefly: Cell proliferation assay (CTG), SU-DHL-10. To be noted: Homo sapiens, SU-DHL10, 72 h. In kind it is cell-based. On the procedure: • 1. Harvest cells during the logarithmic growth period and count cell number using Count-star. • 2. Adjust cell concentrations to […] with respective culture medium. • 3. Add 90 μL cell suspensions to 96-well plates with the final cell density of 1×10^4 cells/well. (cell concentration will be adjusted according to the data base or density optimization assay.) • 4. The next day, prepare 10× solution (Top working concentration: 10 μM of test article in media with 3.16-fold serial dilutions to achieve 9 dose levels). • 5. Dispense 10 μL drug solution of both test article and reference control in each well (duplicate for each drug concentration) of the plate.

Chain of PI3K (p110δ/p85α) (h) (O00329 whole entry, the tested form may be a part): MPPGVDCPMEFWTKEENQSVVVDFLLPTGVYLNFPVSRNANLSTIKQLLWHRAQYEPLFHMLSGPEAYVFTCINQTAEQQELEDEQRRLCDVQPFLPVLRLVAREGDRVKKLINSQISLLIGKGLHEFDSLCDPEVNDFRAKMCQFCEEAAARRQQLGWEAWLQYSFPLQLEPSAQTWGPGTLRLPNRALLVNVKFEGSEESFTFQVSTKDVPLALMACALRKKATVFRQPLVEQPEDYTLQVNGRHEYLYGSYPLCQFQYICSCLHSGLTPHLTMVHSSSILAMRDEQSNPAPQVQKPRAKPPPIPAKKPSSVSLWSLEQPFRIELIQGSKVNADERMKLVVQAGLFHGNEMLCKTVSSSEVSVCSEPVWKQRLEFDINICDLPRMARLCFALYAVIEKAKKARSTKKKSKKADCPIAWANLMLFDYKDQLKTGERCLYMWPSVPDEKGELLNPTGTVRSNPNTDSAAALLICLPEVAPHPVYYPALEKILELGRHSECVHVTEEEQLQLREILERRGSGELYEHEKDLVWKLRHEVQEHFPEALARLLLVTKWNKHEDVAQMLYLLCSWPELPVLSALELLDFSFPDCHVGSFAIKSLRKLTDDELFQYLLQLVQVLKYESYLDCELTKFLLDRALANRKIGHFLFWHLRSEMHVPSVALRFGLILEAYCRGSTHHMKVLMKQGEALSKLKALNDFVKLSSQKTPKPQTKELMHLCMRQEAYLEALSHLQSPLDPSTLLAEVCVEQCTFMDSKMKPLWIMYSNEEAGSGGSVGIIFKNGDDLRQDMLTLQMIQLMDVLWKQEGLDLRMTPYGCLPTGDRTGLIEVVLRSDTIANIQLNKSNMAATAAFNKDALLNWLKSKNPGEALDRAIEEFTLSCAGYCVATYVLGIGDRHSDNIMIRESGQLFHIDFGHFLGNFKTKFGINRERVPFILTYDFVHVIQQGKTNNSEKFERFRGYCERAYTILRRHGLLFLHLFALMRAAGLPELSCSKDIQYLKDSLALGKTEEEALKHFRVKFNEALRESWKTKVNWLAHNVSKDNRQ
Chain of PI3K (p110δ/p85α) (h) (P27986 whole entry partner, the tested form may be a part): as the sequence (P27986 whole entry partner) above

With `Cc1noc(-c2c(N)ncnc2N[C@@H](C)c2nc3cccc(C#CCO)c3c(=O)n2-c2ccccc2)n1` [Example 34, (S)-2-(1-((6-amino-5-(3-methyl-1,2,4-oxadiazol-5-yl)pyrimidin-4-yl)amino)ethyl)-5-(3-hydroxyprop-1-yn-1-yl)-3-phenylquinazolin-4(3H)-one], the concentration for half-maximal inhibition (IC50) was 0.004 µM in data set [1]; 15.3 µM in data set [3]; 0.16 µM in data set [4]; 0.0703 µM in data set [5]; more than 30 µM in data set [6]; 0.3 µM in data set [7]. In data set [2] (liver microsomes, in vivo CLint extrapolated from rat liver microsome incubation), the CLint scaled at 5 μM is 31 mL/min/kg. Also, in data set [2] (rat liver microsomes 0.5 mg protein/mL, compound 5 μM, NADPH, 37° C., read-out: Rat T1/2), the half-life at 5 μM came out at 1.34 h.

One may read the IC50 as the concentration needed to halve the response being measured. One may read the CLint scaled as a measure of how fast metabolising enzymes remove a compound, apart from limits set by blood flow.
